Assay results reported in PubChem BioAssay AID720570 (Broad Institute, 2013).
Activity calls are given as the source filed them.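 Rule for the calls: active = cell-killing curve crosses a set limit at a concentration no more than twice the top valid dose; inconclusive = flat curve with a 30 to 70% loss, or a poor fit; inactive = signal rising instead of falling, and the rest.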

assay: cytotoxicity in EWS/Fli1-dependent TC71 cells – cell-based, luminescence, cherry-picked samples, retest, confirmation (AID 720570); settings: TC71 Ewing sarcoma viability, CellTiter-Glo ATP, 72 h; at 23.5 µM (top of the series)

Row | Compound | activity change, negative = cytotoxicity
1 | COC(=O)C[C@@H]1CC[C@H]2[C@H](COc3ccc(NC(=O)Nc4ccc(C#N)cc4)cc3C(=O)N2C)O1 | 4.96% (inactive)
2 | COC(=O)C[C@@H]1CC[C@@H]2[C@H](COc3ccc(NC(=O)c4cccc(Cl)c4)cc3C(=O)N2C)O1 | 2.41% (inactive)

same assay, conditions: TC71 Ewing sarcoma viability, CellTiter-Glo ATP, 72 h; at 26 µM (top of the series)

Row | Compound | activity change, negative = cytotoxicity
3 | COC(=O)C[C@@H]1CC[C@@H]2[C@H](COc3ccc(NC(=O)Nc4ccc(C#N)cc4)cc3C(=O)N2C)O1 | 4.12% (inactive)
4 | COC(=O)C[C@@H]1CC[C@@H]2[C@H](COc3ccc(NC(=O)c4cc(F)cc(F)c4)cc3C(=O)N2C)O1 | -5.96% (inactive)
5 | CC(C)c1oc(=O)cc2c1[C@@H](O)[C@H]1OC(=O)[C@@]3(C)CC[C@@H](O)[C@@]2(C)C13 (stereo partly drawn) | -18.6% (inactive)
6 | CCN(CC)C(=O)CN1C(=O)C(=O)c2ccccc21 | 6.39% (inactive)
7 | O=C(CCCN1C(=O)/C(=C/c2ccccc2Cl)SC1=S)NNC(=O)c1ccc(Cl)cc1 | -7.21% (inactive)
8 | CCOC(=O)c1c(-c2ccc(C)cc2)csc1NC(=O)CCN1CCOCC1 | 13.3% (inactive)
9 | COC(=O)C[C@@H]1CC[C@@H]2[C@@H](COc3ccc(NC(=O)Nc4cccc(F)c4)cc3C(=O)N2C)O1 | 5.61% (inactive)
10 | CCOc1ccc(NC(=O)C(=O)N/N=C\c2ccc(CNS(=O)(=O)c3ccccc3)o2)cc1 | 17.4% (inactive)
11 | C[C@@H]1CN([C@H](C)CO)C(=O)CCCn2nncc2CO[C@H]1CN(C)Cc1ccc(Oc2ccccc2)cc1 | -9.65% (inactive)
12 | C(=N\Nc1ccc2ccccc2n1)/c1ccc2c(c1)OCCO2 | -8.46% (inactive)
13 | CC(NC(=O)c1ccco1)c1nc(-c2ccc(C(C)(C)C)cc2)no1 (stereo not drawn) | -6.69% (inactive)
14 | CCc1c(C(=O)NN2C(=O)C3CCCCC3C2=O)csc1C (stereo not drawn) | 23.1% (inactive)
15 | C[C@@H]1CN([C@H](C)CO)C(=O)c2cc(C#CCc3ccccc3)cnc2O[C@@H]1CN(C)Cc1cccc(F)c1 | -4.64% (inactive)
16 | O=C(CCCN1C(=O)S/C(=C\c2ccccc2)C1=O)NNC(=O)c1ccccc1O | 5.39% (inactive)
17 | COc1ccc2oc(C(=O)NCCc3ccccc3)c(C)c2c1 | 3.92% (inactive)
18 | C[C@@H]1CN([C@H](C)CO)S(=O)(=O)c2ccc(C#Cc3ccncc3)cc2O[C@@H]1CN(C)C(=O)Nc1ccc2c(c1)OCO2 | -0.54% (inactive)
19 | C(=C\c1ccc(C2[C@H]3CNC[C@@H]2N3Cc2ccccn2)cc1)/c1ccccc1 (stereo partly drawn) | -7.86% (inactive)
20 | O=C(Nc1ccc(OC(=O)N2CCCCC2)cc1)N1CCOCC1 | 2.31% (inactive)
21 | O=c1cc(CN2CCN(Cc3ccccc3)CC2)c2ccc(O)c(O)c2o1 | -9.02% (inactive)
22 | CC(C)NC(=O)N(C)C[C@@H]1Oc2cc(C#Cc3ccc(F)cc3)ccc2S(=O)(=O)N([C@H](C)CO)C[C@H]1C | 4.97% (inactive)
23 | Cc1ccsc1C(=O)OCC(=O)NCCC1=CCCCC1 | 9.59% (inactive)
24 | CCNC(=O)[C@@H]1[C@@H](CO)[C@@H]2Cn3c(ccc(C4=CCCCC4)c3=O)[C@H]1N2CC | 8.36% (inactive)
25 | CCOC(=O)Cc1csc(NC(=S)NC(=O)c2ccc(C)cc2)n1 | 19.7% (inactive)
26 | Cc1ccccc1N=Nc1c(O)n(C)c2ccccc12 | 3.17% (inactive)
27 | COC(=O)[C@H]1[C@H](CO)[C@H]2Cn3c(ccc(-c4ccccc4F)c3=O)[C@@H]1N2CC1CCCC1 | 4.06% (inactive)
28 | O=c1c2ccccc2oc2cc(C#CC3(O)CCCCC3)ccc12 | -17.6% (inactive)

Row | Compound | activity change, negative = cytotoxicity
29 | CN(CCO)c1ccc(/C=N/Nc2nncc3ccccc23)cc1 | 0.119% (inactive)
30 | Cc1cc(Br)ccc1N=C1C(=O)Nc2ccccc21 | 6.85% (inactive)
31 | CNC[C@H](CC1CCCCC1)NC[C@H](CO)NCCc1cccc(C(F)(F)F)c1 | 3.89% (inactive)
32 | COc1ccc(CCC(C)NCC2CCCCC2)cc1 (stereo not drawn) | 7.46% (inactive)
33 | CCOc1ccc(/C=C2\CCc3ccccc3C2=O)cc1 | 4.42% (inactive)
34 | C/C(=N\N(c1ccccc1)c1ccccc1)c1ccco1 | 12.8% (inactive)
35 | OCCN1CCN(C(=S)c2ccc(-c3ccccc3)cc2)CC1 | -0.296% (inactive)
36 | O=C(O)c1ccc(N/N=C/c2ccc(OC(=O)c3cccc(Cl)c3)cc2)cc1 | -1.51% (inactive)
37 | CCOC(=O)C1CCCCN1C(=O)CCc1c(C)nc2cc(-c3ccccc3)nn2c1C (stereo not drawn) | 11.3% (inactive)
38 | CCOc1ccc(-c2cc(CCCC(=O)NCc3ccc(C)cc3)no2)cc1 | -3.16% (inactive)
39 | O=C(NC1CCCC1)C(c1ccccc1)n1c(CSCCOc2ccccc2)nc2ccccc21 (stereo not drawn) | 3.49% (inactive)
40 | O=C(COC(=O)c1ccc[nH]c1=O)Nc1ccc(N2CCCCC2)cc1 | 6.54% (inactive)
41 | Cc1ccc(C(=O)CN2C(=O)c3ccccc3S2(=O)=O)cc1 | 1.85% (inactive)
42 | COc1ccc2cc(C(N)=O)/c(=N\NC(=O)c3ccccc3)oc2c1 | 16.9% (inactive)
43 | CN(C)C(=S)N=Nc1[nH]c2ccccc2c1O | 16.9% (inactive)
44 | Cc1ccc(S(=O)(=O)N(C)C[C@H]2Oc3c(cccc3N(C)C)C(=O)N([C@@H](C)CO)C[C@@H]2C)cc1 | -6.3% (inactive)
45 | CC1(CCc2ccccc2)NC(=O)N(CC(=O)N2CC(=O)Nc3ccccc32)C1=O (stereo not drawn) | 3.37% (inactive)
46 | C[C@H](CO)N1C[C@H](C)[C@H](CN(C)CC2CCCCC2)Oc2ccc(NC(=O)Nc3cccc4ccccc34)cc2C1=O | 6.42% (inactive)
47 | COc1ccc(/C=N/Nc2ccc(C(=O)O)cc2)cc1Br | -12.7% (inactive)
48 | COc1cc(/C=N\Nc2nc(-c3ccc(C)cc3)c(NC(C)=O)s2)ccc1O | 4.59% (inactive)
49 | CC1=NC(=O)C(N=Nc2cccc(C(=O)O)c2)N1c1ccccc1 (stereo not drawn) | 18.2% (inactive)
50 | O=C(NC(=O)c1ccccc1)Nc1ccccc1 | 10.6% (inactive)
51 | C[C@@H]1CN([C@@H](C)CO)S(=O)(=O)c2ccc(C#CCN(C)C)cc2O[C@@H]1CN(C)Cc1ccncc1 | -4.92% (inactive)
52 | CC(=O)c1ccc(NC(=O)c2noc3c2CCC3)cc1 | -19.5% (inactive)
53 | CN(C)c1ccc(/C=N/Nc2nc3ccccc3o2)cc1 | 1.68% (inactive)
54 | CCCc1nc2ccc(NC(=O)c3cccs3)cc2c(=O)n1Cc1ccccc1Cl | 2.97% (inactive)

Row | Compound | activity change, negative = cytotoxicity
55 | CCN(CC)c1ccc(C2NC(=O)c3ccccc3N2)cc1 (stereo not drawn) | -26.2% (inactive)
56 | COc1ccc(/C=C2\SC(=S)N(CCCC(=O)NNC(=O)c3ccccc3O)C2=O)cc1 | -6.8% (inactive)
57 | O=C1Nc2ccccc2C1=Nc1ccccc1-c1ccccc1 | 11.4% (inactive)
58 | CCOc1cc2[nH]c(=S)n(Cc3ccc(C(=O)N4CCN(C)CC4)cc3)c(=O)c2cc1OCC | 11.2% (inactive)
59 | COc1ccccc1-c1cn(CC[C@H]2CC[C@@H](NC(=O)C3CCCC3)[C@@H](CO)O2)nn1 | 12.9% (inactive)
60 | C[C@@H]1CN([C@H](C)CO)C(=O)c2cc(NC(=O)Nc3ccccc3)ccc2O[C@@H]1CN(C)Cc1ccc(C(=O)Nc2ccccc2N)cc1 | -33.9% (inactive)
61 | CCOc1ccc(-c2cc(CCCC(=O)N3CCN(c4ccc(OC)cc4)CC3)no2)cc1 | -1.53% (inactive)
62 | COC(=O)C[C@@H]1CC[C@@H]2[C@H](COc3ccc(NC(=O)Nc4cccc(Cl)c4)cc3C(=O)N2C)O1 | -5.82% (inactive)
63 | C[C@H]1CN([C@@H](C)CO)C(=O)c2cccc(NC(=O)c3ccc(-c4nccs4)cc3)c2O[C@@H]1CN(C)Cc1ccc(C(=O)Nc2ccccc2N)cc1 | -30.9% (inactive)
64 | COC(=O)C[C@@H]1CC[C@@H]2[C@H](COc3ccc(NC(=O)c4ccccc4)cc3C(=O)N2C)O1 | 7.67% (inactive)
65 | COc1ccc(NC(=O)N(C)[C@H]2C[C@H]3c4[nH]c5ccccc5c4CCN3C(=O)[C@H]2CO)cc1 | 2.92% (inactive)
66 | COc1ccc(/C=C2\SC(=O)N(CCCC(=O)Nc3cc(Cl)ccc3C(=O)O)C2=O)cc1 | 5.69% (inactive)
67 | Cc1ccc(/C=C/C(=O)N2CCN(S(=O)(=O)c3c(C)c(C)cc(C)c3C)CC2)o1 | -5.96% (inactive)
68 | CN(C)[C@@H]1CCC[C@@H]1OC(=O)C(c1ccccc1)c1ccccc1 | 10.9% (inactive)
69 | NC1=CC(=O)C(=O)c2cccnc21 | 1.93% (inactive)
70 | COc1ccc(/C=C2\SC(=S)N(CCCC(=O)NC3CCCC3)C2=O)cc1OC | -1.55% (inactive)
71 | COc1ccccc1N(/N=C1\Sc2ccccc2C1=O)C(C)=O | -15.8% (inactive)
72 | COC(=O)Cc1[nH]n(-c2nc3ccccc3s2)c(=O)c1C(C)=Nc1ccc(C)cc1 | -7.01% (inactive)
73 | O=C(O)c1ccc2cc(-c3ccccc3)[nH]c2c1 | 10.6% (inactive)
74 | c1ccc(-c2ccc([C@H]3[C@H]4CNC[C@@H]3N4Cc3cc(-c4ccccc4)on3)cc2)cc1 | -7.89% (inactive)
75 | COc1ccc(Cl)cc1S(=O)(=O)Nc1ccc2c(c1)n(C)c(=O)n2C | -4.55% (inactive)
76 | O=C1c2ccc3c4c(ccc(c24)C(=O)N1c1cccc(O)c1)C(=O)N(c1cccc(O)c1)C3=O | -1.18% (inactive)
77 | Cc1ccc(N=C2NC(=O)/C(=C\c3cccs3)S2)cc1C | -0.931% (inactive)
78 | S=C(NCCN1CCOCC1)Nc1ccccc1Cl | 11.4% (inactive)
